From US9702866B2, “Glatiramer acetate human monocytic cell line-based potency assay” (SYNTHON B.V., priority 2013, dated 2017)

What was measured:
THP-1 cells [1] = test: sIL-1Ra expression of IFNγ-stimulated THP-1 cells after exposure to GA (ELISA); format: cell-based, human; conditions: THP-1 cells in the presence of IFNγ
Procedure: • Add 10 ml RPMI-1640 Medium (Lonza/Cambrex, #12-70F) with 10% FBS (fetal bovine serum) to a 15 ml sterile tube. • Remove one vial of THP-1 cells (ATCC, #TIB-202) from the liquid nitrogen storage tank and thaw the cells in the vial by gentle agitation in a 37° C.±1° C. water bath until almost totally thawed. • Sterilize the outside of the vial using a wipe, soaked in 70% (v/v) ethanol. • Using good aseptic technique, open the vial and transfer the contents of the vial into a Falcon tube, adding 10 ml of the pre-warmed RPMI-1640 plus 10% FBS. • Spin down at approximately 200 g for 5 minutes. Afterwards, discard the supernatant. • Resuspend the pellet into 10 ml pre-warmed RPMI-1640 plus 10% FBS, and transfer the cell suspension to a T-25 culture flask. • Place the T-25 cell culture flask into a humidified incubator at 37±1° C. and 5.0±1% CO2. Sub-Culturing (Passaging) of THP-1 Cells • THP-1 cells are sub-cultured every 3 or 4 days. • Collect cells and spin down at 200 g for 5 min. […] Supernatant Harvest and ELISA • After 72 hours of incubation centrifuge the 96-well plate at 200 g for 5 minutes. • Transfer 125 μl of the cell-free supernatant/well to a storage plate. • sIL-1Ra is determined in the cell supernatants using the sIL-1Ra ELISA kit from Quantikine, R&D, Minneapolis, Minn. […]

THP-1 cells [2] = test: lactate dehydrogenase (LDH) release as marker for cell death in IFNγ-activated THP-1 cells; format: cell-based, human; conditions: 100 μg/ml glatiramer acetate, IFNγ (10 ng/ml)-activated THP-1 cells
THP-1 cells [3] = test: cell viability by ATP levels (CellTiter-Glo) in IFNγ-activated THP-1 cells; format: cell-based, human; conditions: IFNγ (25 ng/ml)-activated THP-1 cells, after 120 h of culture
Procedure: In another embodiment of the present invention, the viability of human monocytic cell line cells, particularly THP-1 cells, is measured. Suitable methods to determine viability of human monocytic cell line cells are well-known to the person skilled in the art. One suitable method is measuring ATP levels (for instance the CellTiter-Glo® Luminescent Cell Viability Assay is a homogeneous method to determine the number of viable cells in culture based on quantitation of the ATP present, which signals the presence of metabolically active cells) after a suitable time period, typically after 96-144 hours, particularly after 120 hours. When determining the number of viable cells, similar or slightly higher concentrations of IFNγ can be used as described above.
Upon confirmation of parallelism the reduced model will be fitted and the EC50 for the Reference and test batch will be estimated by EC50RS and EC50TA respectively. The relative potency of the test batch will be estimated as: Relative potency=EC50RS/EC50TA*100% Cell Viability • The number of metabolically active cells in the cultures is determined by the CellTiter-Glo® Luminescent Cell Viability Assay (Promega, G7571). […] It is based on quantitation of adenosine tri-phosphate (ATP), which signals the presence of metabolically active cells.

[4] = test system: Human leukemic monocyte lymphoma cells (U937); test: responsiveness of U937 cells to GA; format: cell-based
human monocytes = human monocytes in vitro; cited from earlier work
[5] = MS patients, in vivo; cited from earlier work

For Glatiramer acetate [GA], the sIL-1Ra secretion (THP-1 cells [1]) was “induces sIL-1Ra secretion”, the “cell death (LDH release)” value (THP-1 cells [2]) was “induces cell death” and the “cell viability (ATP levels)” value (THP-1 cells [3]) was “cell viability inhibition”. For the same substance, the “responsiveness of cells to GA” value [4] was “not responsive”, the “production of sIL-1Ra in monocytes” value (human monocytes) was “induces the production” and the sIL-1Ra circulating levels [5] was “enhances sIL-1Ra circulating levels”.
